Target: T1, nanoKAZ (Oplophorus gracilirostris, UniProt Q9GV45, A31E/A60N/A81I/F95D/I117V/K70R/L54V/L99Q/M102K/N193R/P142E/Q151K/Q38R/Q45L/V71I/Y165I)
T1 construct: luciferase catalytic domain (nanoKAZ, 19 kDa) from the Oplophorus-derived luciferase
Test: Michaelis-Menten parameters of nanoKAZ from Lineweaver-Burk representation
Assay type: biochemical
Conditions: extrapolated from Lineweaver-Burk, constant enzyme concentration
Excerpt: The two dotted lines (linear regression) are converging to the same intercept with the x-axis (−1/Km) and different intercepts with the y-axis (1/Vmax). The equations of the two linear regressions are indicated and the corresponding correlation factors (R^2) with the experimental data are reported.
Considering the hypothesis of a Michaelis-Menten mechanism for the nanoKAZ, the Km and Vmax were extrapolated from the Lineweaver-Burk representation of the enzyme activity catalyzing either Q-1 or Q-3. […] The data have been fitted with linear regression with satisfying high correlation factors (R). The Km are the same for both substrates (Km=2 μM) whereas the Vmax is 3-times lower for Q-1 (0.6·10^6 RLU/sec) than for Q-3 (2.0·10^6 RLU/sec).

T1 sequence (Q9GV45 other isoform, or with tags, fused parts or gaps with the stated changes): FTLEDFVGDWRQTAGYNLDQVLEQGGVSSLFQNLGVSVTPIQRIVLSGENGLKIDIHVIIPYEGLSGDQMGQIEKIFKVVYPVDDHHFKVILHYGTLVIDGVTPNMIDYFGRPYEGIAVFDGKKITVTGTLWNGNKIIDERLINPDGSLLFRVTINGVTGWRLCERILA

Row | SMILES | Km [µM]
1 | O=c1c(Cc2ccco2)nc2c(Cc3ccccc3)[nH]c(-c3ccccc3)cn1-2 [Q-1, 8-benzyl-2-(furan-2-ylmethyl)-6-phenylimidazo[1,2-a]pyrazin-3(7H)-one, reference compound] | 2
2 | Cc1ccc(Cc2nc3c(Cc4ccccc4)[nH]c(-c4ccccc4)cn-3c2=O)o1 [Q-3, 8-benzyl-2-((5-methylfuran-2-yl)methyl)-6-phenylimidazo[1,2-a]pyrazin-3(7H)-one] | 2

Source: patent publication US12612411B1, “Imidazopyrazine derivatives, process for preparation thereof, and their uses as luciferins” (INSTITUT PASTEUR, priority 2017, dated 2026)
